Source: publication PMC4747340, “A new class of small molecule estrogen receptor-alpha antagonists that overcome anti-estrogen resistance” (Oncotarget, 2015)
Several values for one entry are separate records, joined by “and”; a condition that tells them apart may be missing. Identical values can stand only once. Like-named read-outs stand apart in the source and are kept apart here.

Columns and labels:
[1] = target: T1, estrogen receptor-alpha (ER) (Homo sapiens, UniProt P03372); test: constitutive ER activity, ERE-TK-Luc reporter, in anti-estrogen resistant LCC9 cells; type: cell-based; set-up: LCC9 cells in 24-well dishes were transfected overnight with the ERE-TK-Luc reporter plasmid; endogenous in cells; host or cells: LCC9; conditions: for IC50: LCC9, no E2, 24 hr, read-out: IC50 for inhibition of ER activity in LCC9
T1 sequence (P03372 1-595): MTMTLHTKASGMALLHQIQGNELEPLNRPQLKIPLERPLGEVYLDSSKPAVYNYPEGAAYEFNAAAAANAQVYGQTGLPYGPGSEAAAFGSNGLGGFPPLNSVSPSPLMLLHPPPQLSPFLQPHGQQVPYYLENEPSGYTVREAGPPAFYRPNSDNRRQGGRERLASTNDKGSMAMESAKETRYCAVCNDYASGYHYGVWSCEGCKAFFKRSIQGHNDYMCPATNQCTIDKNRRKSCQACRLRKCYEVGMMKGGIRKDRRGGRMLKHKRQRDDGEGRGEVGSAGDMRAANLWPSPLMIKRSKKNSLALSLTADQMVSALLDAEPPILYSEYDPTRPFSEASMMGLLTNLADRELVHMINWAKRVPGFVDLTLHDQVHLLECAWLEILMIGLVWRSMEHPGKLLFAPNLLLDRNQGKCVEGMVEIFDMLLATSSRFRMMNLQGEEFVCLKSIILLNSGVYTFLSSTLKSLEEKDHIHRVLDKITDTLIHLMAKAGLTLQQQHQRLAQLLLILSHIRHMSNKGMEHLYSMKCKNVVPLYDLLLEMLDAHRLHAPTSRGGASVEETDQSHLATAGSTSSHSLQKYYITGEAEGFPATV
Description: (§1) For MCF-7, luciferase activity is expressed as a fold-change relative to the no E2 control. For LCC9, luciferase activity is expressed relative to the control without the reporter present. Values plotted are means ± SEMs of four replicate wells. The data shown in each panel are representative of three independent experiments.
The cells were then treated with the indicated concentrations of the six bioactive compounds or vehicle only (DMSO) for 24-hr and assayed for luciferase activity. Luciferase activity is expressed as a percentage of the DMSO control. Values are means ± SEMs of four replicate wells. The data shown in each panel are representative of three independent experiments.
The cells were then harvested for luciferase assays. Luciferase activity was expressed as a fold-change relative to the no reporter control. Values plotted are means ± SEMs of four replicate wells. The data shown are representative of three independent experiments.
(§2) Subconfluent cells in 24-well dishes were transfected overnight with 0.25 μg of each indicated vector plus the ERE-TK-Luc reporter in serum-free DMEM containing Lipofectamine2000 (Life Technologies, Washington, DC). Total transfected DNA was kept constant by addition of control vector. The cells were washed, incubated in phenol red-free DMEM containing 5% charcoal-stripped serum (obtained from the Tissue Culture Shared Resource) (0.2 ml/well) ± E2 (10 nM) ± the indicated compound for 24-hr, and harvested for luciferase assays. For each assay condition was tested in quadrupicate. To monitor the transfection efficiency, cultures were co-transfected with plasmid pRSV-β-gal (Promega, Madison, WI) to visualize transfected cells by X-gal staining.

[2] = target: T1, estrogen receptor-alpha (ER); test: ER activity, ERE-TK-Luc reporter, in MCF-7 cells; type: cell-based; set-up: MCF-7 cells in 24-well dishes were transfected overnight with the ERE-TK-Luc reporter plasmid; endogenous in cells; host or cells: MCF-7; conditions: for IC50: read-out: IC50 for inhibition of E2-stimulated ER activity
Description: as §1
The cells were then treated ± 17β-estradiol (E2, 10 nM) and with the indicated compound (@ 1 μM or 20 μM) or vehicle only (DMSO) for 24 hr and assayed for luciferase activity. Luciferase activity is expressed as a fold-change relative to the no E2 control. The data shown are representative of three independent experiments.
as §2

[3] = MTT assay of cell viability; type: cell-based; conditions: human, MCF-7 cells, 24-hr exposure, relative to untreated control
Description: Figure 3 Cytotoxicity and specificity of compounds A., B. Subconfluent proliferating cells were incubated with the indicated compound at the indicated concentration for 24-hr and then harvested for MTT dye reduction assays. Cell viability values (relative to untreated control cells) are means ± SEMs of 10 replicate wells. C., D. Subconfuent proliferating T47D cells were transfected overnight with the MMTV-Luc reporter (0.25 μg per well in 24-well dishes), washed, and allowed to recover for several hr in fresh medium. The cells were then treated with a synthetic progestin (R5020, 10 nM) plus the indicated compound at the indicated concentration for 24 hr and then harvested for luciferase assays. Luciferase activity is expressed relative to the MMTV-Luc control (no agents added) (panel A) or as a percentage of the +R5020 positive control (panel B). Values are means ± SEMs of four replicate wells. The data shown in each panel are representative of three independent experiments.
Assays were performed as described before. After the indicated treatment, cells in 96-well dishes were solubilized and assayed for MTT dye reduction. Cell viability was expressed as the amount of dye reduction relative to untreated control cells. and calculated as means ± SEMs for 10 replicate wells.

cathepsin D = test: Western blotting of cathepsin D in LCC9 cells; type: cell-based, human; conditions: LCC9, 24-hr exposure
Description: MCF-7 cells in DMEM plus 5% CSS were subjected to the indicated treatment(s) for 24-hr and then harvested for Western blotting to detect cathepsin D or actin (control for loading and transfer). B., D. LCC9 cells were treated with vehicle only (DMSO) or the indicated compound for 24-hr and then harvested for Western blotting for cathepsin D and actin. The data shown in each panel are representative of three independent experiments.
After the indicated cell treatment(s), the cells were harvested, and whole-cell lysates were prepared using RIPA buffer (Santa Cruz). Equal aliquots of whole-cell protein (either 100 μg unprecipitated whole-cell lysate or one half of the precipitated protein from 500-μg whole-cell lysate) were electrophoresed on 4-12% SDS-polyacrylamide gradient gels, transferred to nitrocellulose membranes (Millipore, Bedford, MA), and blotted using primary antibodies against BRCA1 (C-20, rabbit polyclonal, 1:200 dilution; Santa Cruz), cathepsin D (R-20, goat polyclonal, 1:300; Santa Cruz), ER (F10, mouse monoclonal, 1:500; Santa Cruz), or actin (goat polyclonal, sc-1615, 1:400; Santa Cruz). […]

Structure (SMILES) | effect on ER activity in LCC9 cells, single agent ([1]; LCC9, 24 hr, Tam 5 μM in b8) | IC50 [1] | ER activity in LCC9 cells, compound combined with Tam ([1]; compound plus Tam compared with compound alone, 24 hr) | inhibition at 1 µM ([2]; MCF7, MCF-7, E2 10 nM, compound 1 μM, 24 hr, read-out: inhibition of E2-stimulated ER activity at 1 μM) | IC50 ([2]; MCF-7, E2 10 nM, 24 hr) | viability at 24 h, 1 µM [3] | viability at 24 h, 20 µM [3] | constitutive cathepsin D levels in LCC9 (cathepsin D) | inhibition at 1 µM ([2]; MCF7, read-out: inhibition of E2-stimulated ER activity at 1 μM)
O=C(c1cc(Br)ccc1O)c1cc(Br)ccc1O [4631-P/1] | inhibited ER activity in LCC9 cells | ≤ 1000 nM | significantly lower ER activity than 4631-P/1 alone | ≥ 50% | ≤ 1000 nM | 100% | > 90% | decreased | 
O=C(CC(c1ccccc1)N1CCCCC1)c1ccccc1 (centres unmarked) [35446-L/1, 1,3-diphenyl-3-(piperidin-1-yl)propan-1-one] |  | ≤ 1000 nM |  |  | ≤ 1000 nM and 800 nM | 100% | > 90% | decreased | ≥ 50%
